Measurements taken from PMC8509428, “The Phenoxyalkyltriazine Antagonists for 5-HT6 Receptor with Promising Procognitive and Pharmacokinetic Properties In Vivo in Search for a Novel Therapeutic Approach to Dementia Diseases” (International Journal of Molecular Sciences, 2021).
Where “and” joins values, the source holds several entries; their conditions need not be identical. Equal values may be shown once. Read-outs that look alike come from different tables or passages of the source.

Assays:
human 5-HT6R = conditions: ± SD; read-out: Ki 5-HT6 (converted); cited from earlier work
rats = assay: Exploratory activity measured in the EPM test; format: in vivo, rat; conditions: mean ± SEM
Procedure: The experiment was performed using an EPM apparatus (details see above). Total ambulation (the total distance covered by a rat, and ambulation along X and Y axis) was taken to discern drug effects on general activity from those on open-arm exploration, during a 5-min test period (i.e., the time equal to the observation period in the EPM test). Rats’ behavior was not videotaped during the test.

[1] = Pharmacokinetics and tissue distribution in rats; format: in vivo, rat; conditions: for Kp: intraperitoneal
Procedure: To assess pharmacokinetic profile and tissue penetration of 2 and 3, the male Wistar rats were a single intraperitoneal (i.p.) injected with these compounds dissolved in tween (vehicle volume 1 mL/kg) at a dose of 0.3 mg/kg, determined in behavioral studies. The animals were killed by decapitation under deep anesthesia (i.p. injection of 50 mg/kg ketamine and 7.5 mg/kg xylazine) at 5, 15, 30, 60, 120 and 240 min after compounds administration (four animals per time point) and blood samples (approximately 5–6 mL) were collected into tubes. Moreover, five tissues (i.e., brain, heart, lungs, kidneys and liver) were harvested, rinsed with cold saline, and the wet weights determined. Blood was allowed to clot for 15–20 min at room temperature and then centrifuged (3000 rpm for 10 min). The obtained serum and tissues were stored frozen at −80 °C until analysis.
The concentrations of both test compounds in serum and tissue homogenates were measured by a reverse-phase high-performance liquid chromatography method with ultraviolet detection (HPLC/UV). […] The mobile phase consisted of methanol/10 mM potassium dihydrogen phosphate buffer, pH 4.6/acetonitrile (51/40/9, v/v/v). The isocratic separation was performed at 1.0 mL/min constant flow-rate with column temperature maintained at 38 °C. The detection wavelength was set at 206 nm for 2 and at 215 nm for 3. […] EZChrome Elite v. 3.3.2 software (VWR, Darmstadt, Germany) was used for data acquisition.
Before analysis, tissue samples were thawed, placed in four volumes (w/v) of phosphate-buffered saline (PBS, pH 7.4) and homogenized using a MICCRA D-1 homogenizer (ART Prozess- & Labortechnik GmbH & Co., Heitersheim, Germany). To isolate 2 or 3, 500 µL of rat serum or tissue homogenate containing this compound were mixed with a 20-μL volume of IS solution (50 ng/mL or 200 ng/g in methanol). As an IS for compound 2 quantification, compound 3 was used and vice versa.
The samples were alkalized with 50 μL of 4 M sodium hydroxide solution, vortex-mixed, and extracted with 1 mL of ethyl acetate/hexane (30/70, v/v) mixture on a shaker (VXR Vibrax, IKA, Legnica, Poland) for 20 min. After centrifugation (Eppendorf, Mini Spin Plus, Hamburg, Germany), the organic layers were transferred into new tubes containing 100 μL of methanol and 0.1 M sulfuric acid (10/90, v/v) mixture. Then, the samples were shaken and centrifuged again. Finally, 20–90 μL of each acidic layer was injected into the HPLC system.
Other pharmacokinetic parameters were determined on subjecting the concentration–time data to non-compartmental analysis using Phoenix WinNonlin 8.2 software (Pharsight Corporation, a Certara Company, Princeton, NJ, USA).

[2] = tested on: MK-801-induced memory deficits in rats; assay: Novel object recognition (NOR) test, MK-801-induced memory impairment; format: in vivo, rat; conditions: for Total Exploratory Time in T2 Session: mean ± SEM
Procedure: Five days before the experiment, the rats were transferred to the laboratory, labelled and, thereafter, left to acclimate to the new environment. The animals were handling every five days before experiments to minimize the stress reaction. The protocol was adapted from the original work. The test session comprising of two trials separated by an inter-trial interval (ITI) of 1 h was carried out after 2 days of the training session. During the first trial (familiarization, T1) two identical objects (A1 and A2) were presented in the opposite corners of the open field, approximately 10 cm from the walls. During the second trial (recognition, T2) one of the A objects was replaced by a novel object B, so that the animals were presented with the A = familiar and B = novel objects. Both trials lasted for 3 min and the animals were returned to their home cages after T1.
The objects used were the metal Coca-Cola cans and the glass jars filled with sand. […] The sequence of presentations and the location of the objects were randomly assigned to each rat. After each measurement, the floor was cleaned and dried.
The animals explored the objects by looking, licking, sniffing or touching the object but not when leaning against, standing or sitting on the object. Any rat exploring the two objects for less than 5 s within 3 min of T1 or T2 was eliminated from the study. The exploration time of the objects was measured by a blind experimenter. Based on the exploration time (E) of two objects during T2, the discrimination index (DI) was calculated according to the formula: DI = (EB − EA)/(EA + […]). Using this metric, scores approaching zero reflects no preference while positive values reflect a preference for the novel object and negative numbers reflect a preference for the familiar.
MK-801, used to attenuate learning, was administered at the dose of 0.1 mg/kg (i.p.) 30 min before the familiarization phase (T1), while investigated compounds were given 60 min before T1 session. In such scheme of experiment we could observe the impact of investigated compounds on the one type of rats’ memory—episodic memory and one phase of memory process—[…].
The total exploration time in T2 was used to express the influence of the treatment on the exploratory activity of the animals.

[3] = rat serum, 0.3 mg/kg i.p., 0.3 mg/kg

SMILES: CCC(Oc1ccccc1)c1nc(N)nc(N2CCN(C)CC2)n1 (racemic) [Compound 3, (RS)-4-(4-methylpiperazin-1-yl)-6-(1-phenoxypropyl)-1,3,5-triazin-2-amine]
- Ki (human 5-HT6R): 21 nM
- Total Distance (rats; 0.3 mg/kg i.p.): 4033 ± 340 cm
- X Ambulation (rats; 0.3 mg/kg i.p.): 151 ± 16
- Y Ambulation (rats; 0.3 mg/kg i.p.): 80 ± 8
- Total Distance (rats; 1 mg/kg i.p.): 4102 ± 291 cm
- X Ambulation (rats; 1 mg/kg i.p.): 136 ± 15
- Y Ambulation (rats; 1 mg/kg i.p.): 86 ± 10
- Total Distance (rats; 3 mg/kg i.p.): 3545 ± 136 F(3,22) = 0.9071; NS cm
- X Ambulation (rats; 3 mg/kg i.p.): 123 ± 5 F(3,22) = 0.6336; NS
- Y Ambulation (rats; 3 mg/kg i.p.): 73 ± 5 F(3,22) = 0.3805; NS
- Kp, brain ([1]; AUC0-t tissue / AUC0-t serum): 2.03
- Kp, liver ([1]; AUC0-t tissue / AUC0-t serum): 10.54
- MRT ([1]; male, Wistar, ip, rat serum, 0.3 mg/kg i.p.): 79.3 min
- Kp ([1]; male, Wistar, rat, brain (vs serum), 0.3 mg/kg, AUC0-t tissue / AUC0-t serum, read-out: Kp, brain): 2.63
- Tmax ([1]; male, Wistar, rat, brain, ip, 0.3 mg/kg, rat, 0.3 mg/kg i.p., read-out: Tmax, brain (converted)): 5 min
- half-life ([1]; male, Wistar, rat, brain, ip, 0.3 mg/kg, rat, 0.3 mg/kg i.p., read-out: elimination half-life, brain tissue): 112 min
- Kp ([1]; male, Wistar, rat, heart / serum, 0.3 mg/kg, AUC0-t tissue / AUC0-t serum, read-out: Kp, heart): 2.49
- Tmax ([1]; male, Wistar, rat, heart, ip, 0.3 mg/kg, rat, 0.3 mg/kg i.p., read-out: Tmax, heart (converted)): 5 min
- Kp ([1]; male, Wistar, rat, kidneys (vs serum), 0.3 mg/kg, AUC0-t tissue / AUC0-t serum, read-out: Kp, kidneys): 6.03
- Tmax ([1]; male, Wistar, rat, kidneys, ip, 0.3 mg/kg, rat, 0.3 mg/kg i.p., read-out: Tmax, kidneys (converted)): 15 min
- Kp ([1]; male, Wistar, rat, liver (vs serum), 0.3 mg/kg, AUC0-t tissue / AUC0-t serum, read-out: Kp, liver): 10.5
- Tmax ([1]; male, Wistar, rat, liver, ip, 0.3 mg/kg, rat, 0.3 mg/kg i.p., read-out: Tmax, liver (converted)): 5 min
- Kp ([1]; male, Wistar, rat, lungs / serum, 0.3 mg/kg, AUC0-t tissue / AUC0-t serum, read-out: Kp, lungs): 6.41
- Tmax ([1]; male, Wistar, rat, lungs, ip, 0.3 mg/kg, rat, 0.3 mg/kg i.p., read-out: Tmax, lungs (converted)): 5 min
- CL/F ([1]; male, Wistar, rat, serum, ip, 0.3 mg/kg, rat serum, 0.3 mg/kg i.p., read-out: CL/F (converted)): 587 mL/min/kg
- Tmax ([1]; male, Wistar, rat, serum, ip, 0.3 mg/kg, rat, 0.3 mg/kg i.p., read-out: Tmax, serum (converted)): 5 min
- half-life ([1]; male, Wistar, rat, serum, ip, 0.3 mg/kg, rat, 0.3 mg/kg i.p., read-out: t1/2λz, serum): 76.7 min
- Cmax ([1]; male, Wistar, serum, ip, rat, 0.3 mg/kg i.p., mean ± SD): 6.32 ± 5.03 ng/mL
- AUC(0-t) ([1]; male, Wistar, serum, ip, rat, 0.3 mg/kg i.p., mean ± SD, read-out: AUC0-t, serum (converted)): 7.07 ng·h/mL
- AUC(0-inf) ([1]; male, Wistar, serum, ip, rat, 0.3 mg/kg i.p., mean ± SD, read-out: AUC0-∞, serum (converted)): 8.53 ng·h/mL
- CL/F [1, 3]: 586 ± 298.7 mL/min/kg
- Vz/F [1, 3]: 65 L/kg and 64.81 ± 21.78 L/kg
- AUC0-t, heart ([1]; rat, 0.3 mg/kg i.p.): 1057.37 ± 285.41 ng·min/mL or ng·min/g
- AUC0-t, kidneys ([1]; rat, 0.3 mg/kg i.p.): 2557.08 ± 1084.42 ng·min/mL or ng·min/g
- AUC0-t, lungs ([1]; rat, 0.3 mg/kg i.p.): 2715.09 ± 1000.42 ng·min/mL or ng·min/g
- Cmax, heart ([1]; rat, 0.3 mg/kg i.p.): 21.83 ± 17.16 ng/mL or ng/g
- Cmax, kidneys ([1]; rat, 0.3 mg/kg i.p.): 41.25 ± 8.41 ng/mL or ng/g
- Cmax, liver ([1]; rat, 0.3 mg/kg i.p.): 129.62 ± 106.23 ng/mL or ng/g
- Cmax, lungs ([1]; rat, 0.3 mg/kg i.p.): 73.65 ± 63.94 ng/mL or ng/g
- AUC0-t, brain ([1]; rat, 0.3 mg/kg i.p., 0.3 mg/kg): 859.1 ng·min/mL or ng·min/g and 859.08 ± 312.87 ng·min/mL or ng·min/g
- AUC0-t, liver ([1]; rat, 0.3 mg/kg i.p., 0.3 mg/kg): 4467.2 ng·min/mL or ng·min/g and 4467.18 ± 2249.99 ng·min/mL or ng·min/g
- Cmax, brain ([1]; rat, 0.3 mg/kg i.p., 0.3 mg/kg): 11.35 ± 6.93 ng/mL or ng/g
- t1/2λz, serum ([1]; rat, 0.3 mg/kg i.p., 0.3 mg/kg): 77 min and 76.65 ± 18.07 min
- Total Exploratory Time in T2 Session ([2]; 0.1 mg/kg i.p. + MK-801 0.1 mg/kg): 47.33 ± 4.79 s
- Total Exploratory Time in T2 Session ([2]; 0.3 mg/kg i.p. + MK-801 0.1 mg/kg): 38.14 ± 4.18 s
- Total Exploratory Time in T2 Session ([2]; 1 mg/kg i.p. + MK-801 0.1 mg/kg): 35.57 ± 3.76 s
- Total Exploratory Time in T2 Session ([2]; 3 mg/kg i.p. + MK-801 0.1 mg/kg): 34.14 ± 1.22; F(5,47) = 1.9394; NS s
- minimal effective dose in NOR test ([2]; i.p., reversal of MK-801-induced memory impairment): 0.1 mg/kg
